# Reference: ChEMBL document CHEMBL1629634, “Postantibiotic effect of tigecycline against 14 gram-positive organisms” (Antimicrob Agents Chemother, 2009)
# Legend:
# Type in all cases: functional
# [1] = test system: Haemophilus influenzae; assay: Antibacterial activity against beta-lactamase deficient and ampicillin-resistant Haemophilus influenzae assessed as sub-MIC effect at 0.3 times MIC concentration incubated for 1 hr by viable plate count method
# [2] = test system: Klebsiella pneumoniae; assay: Antibacterial activity against Klebsiella pneumoniae assessed as post-antibiotic sub-MIC effect at 0.3 times MIC concentration pretreated with 2 times MIC concentration for 1 hr followed by 1:1000 dilution by viable plate count method
# [3] = test system: Acinetobacter baumannii; assay: Antibacterial activity against Acinetobacter baumannii assessed as post-antibiotic sub-MIC effect at 0.3 times MIC concentration pretreated with 10 times MIC concentration for 1 hr followed by 1:1000 dilution by viable plate count method
# [4] = test system: Enterococcus faecalis; assay: Antibacterial activity against vancomycin-sensitive Enterococcus faecalis assessed as sub-MIC effect at 0.4 times MIC concentration incubated for 1 hr by viable plate count method
# [5] = test system: Escherichia coli; assay: Antibacterial activity against Escherichia coli assessed as sub-MIC effect at 0.4 times MIC concentration incubated for 1 hr by viable plate count method
# [6] = test system: Acinetobacter baumannii; assay: Antibacterial activity against multidrug-resistant Acinetobacter baumannii producing OXA-24 and OXA-51 beta-lactamases assessed as sub-MIC effect at 0.4 times MIC concentration incubated for 1 hr by viable plate count method
# [7] = test system: Staphylococcus aureus; assay: Antibacterial activity against vancomycin-intermediate methicillin-resistant Staphylococcus aureus assessed as post-antibiotic sub-MIC effect at 0.4 times MIC concentration pretreated with 10 times MIC concentration for 1 hr followed by 1:1000 dilution by viable plate count method
# [8] = test system: Haemophilus influenzae; assay: Antibacterial activity against beta-lactamase deficient and ampicillin-resistant Haemophilus influenzae assessed as sub-MIC effect at 0.2 times MIC concentration incubated for 1 hr by viable plate count method
# [9] = test system: Streptococcus pneumoniae; assay: Antibacterial activity against penicillin-susceptible Streptococcus pneumoniae assessed as sub-MIC effect at 0.2 times MIC concentration incubated for 1 hr by viable plate count method
# [10] = test system: Acinetobacter baumannii; assay: Antibacterial activity against Acinetobacter baumannii assessed as post antibiotic effect at 10 times MIC concentration incubated for 1 hr measured after 1:1000 dilution by viable plate count method
# [11] = test system: Acinetobacter baumannii; assay: Antibacterial activity against multidrug-resistant Acinetobacter baumannii producing OXA-24 and OXA-51 beta-lactamases by macrodilution method
# [12] = test system: Acinetobacter baumannii; assay: Antibacterial activity against Acinetobacter baumannii by macrodilution method
smiles,measurement,setting,value
CN(C)c1cc(NC(=O)CNC(C)(C)C)c(O)c2c1C[C@H]1C[C@H]3[C@H](N(C)C)C(O)=C(C(N)=O)C(=O)[C@@]3(O)C(O)=C1C2=O [TIGECYCLINE],PAE,[1],0.8 h
same,PAE,[2],2 h
same,PAE,[3],11.2 h
same,PAE,[4],1.8 h
same,PAE,[5],0.1 h
same,PAE,[6],1.9 h
same,PAE,[7],10 h
same,PAE,[8],0.8 h
same,PAE,[9],0 h
same,PAE,[10],2.9 h
same,MIC,[11],2 µg/mL
same,MIC,[12],0.12 µg/mL
